These results are taken from ChEMBL document CHEMBL1770058, “MMP-13 selective alpha-sulfone hydroxamates: identification of selective P1' amides” (Bioorg Med Chem Lett, 2011).

pIC50: −log10 of the molar value. A value given as a limit tells only on which side of the number the result lay.

The target in one series is Neutrophil collagenase (Homo sapiens, UniProt P22894). Kind of series: Inhibition of human MMP8.
The next series deals with Collagenase 3 (Homo sapiens, UniProt P45452). In words: Inhibition of human MMP13.
The target of series [1] is Matrix metalloproteinase-9 (Homo sapiens, UniProt P14780). In words: Inhibition of human MMP9.
Matrix metalloproteinase-9, sequence (P14780 whole entry): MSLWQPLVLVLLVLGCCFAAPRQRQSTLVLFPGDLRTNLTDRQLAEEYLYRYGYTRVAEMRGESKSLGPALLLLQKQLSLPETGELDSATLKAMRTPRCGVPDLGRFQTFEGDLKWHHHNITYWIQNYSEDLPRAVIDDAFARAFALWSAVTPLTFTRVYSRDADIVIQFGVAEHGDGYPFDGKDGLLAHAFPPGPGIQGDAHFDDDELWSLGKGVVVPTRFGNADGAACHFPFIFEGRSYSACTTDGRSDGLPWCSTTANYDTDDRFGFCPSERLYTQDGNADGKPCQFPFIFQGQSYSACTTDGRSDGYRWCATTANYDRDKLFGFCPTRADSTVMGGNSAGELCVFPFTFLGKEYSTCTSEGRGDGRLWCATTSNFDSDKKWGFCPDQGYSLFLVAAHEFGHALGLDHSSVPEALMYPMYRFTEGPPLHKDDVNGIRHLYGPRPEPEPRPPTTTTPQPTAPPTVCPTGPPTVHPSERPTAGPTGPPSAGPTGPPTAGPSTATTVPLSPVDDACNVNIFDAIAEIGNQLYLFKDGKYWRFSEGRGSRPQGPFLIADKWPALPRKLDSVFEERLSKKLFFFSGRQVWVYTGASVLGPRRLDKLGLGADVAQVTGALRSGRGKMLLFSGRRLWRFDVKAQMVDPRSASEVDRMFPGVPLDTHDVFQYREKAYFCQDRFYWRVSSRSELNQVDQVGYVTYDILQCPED
Series [2] concerns the target 72 kDa type IV collagenase (Homo sapiens, UniProt P08253). In words: Inhibition of human MMP2.
A short description of series [3]: Bioavailability in rat. The format is ADME, organism-based. Particulars: in vivo.
Series [4] is described as follows: Half life in rat. Type of series: ADME, organism-based. Particulars: in vivo.
Series [5] deals with Matrix metalloproteinase-14 (Homo sapiens, UniProt P50281). In words: Inhibition of human MMP14.
The target of the next series is T1, Interstitial collagenase (Homo sapiens, UniProt P03956).
T1 sequence (P03956 whole entry): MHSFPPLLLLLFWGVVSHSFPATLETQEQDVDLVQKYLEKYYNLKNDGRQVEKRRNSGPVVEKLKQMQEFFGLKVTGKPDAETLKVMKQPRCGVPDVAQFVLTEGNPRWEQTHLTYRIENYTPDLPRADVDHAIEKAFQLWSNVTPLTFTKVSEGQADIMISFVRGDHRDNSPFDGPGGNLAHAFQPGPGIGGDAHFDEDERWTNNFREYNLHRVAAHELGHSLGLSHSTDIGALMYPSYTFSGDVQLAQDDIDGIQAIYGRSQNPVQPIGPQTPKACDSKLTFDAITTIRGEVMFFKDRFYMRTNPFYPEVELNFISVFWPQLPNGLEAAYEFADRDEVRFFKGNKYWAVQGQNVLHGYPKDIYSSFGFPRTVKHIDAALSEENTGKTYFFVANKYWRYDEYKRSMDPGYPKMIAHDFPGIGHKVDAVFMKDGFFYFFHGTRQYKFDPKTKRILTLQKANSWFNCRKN
Kind of series: Inhibition of human MMP1.

Neutrophil collagenase, sequence (P22894 whole entry): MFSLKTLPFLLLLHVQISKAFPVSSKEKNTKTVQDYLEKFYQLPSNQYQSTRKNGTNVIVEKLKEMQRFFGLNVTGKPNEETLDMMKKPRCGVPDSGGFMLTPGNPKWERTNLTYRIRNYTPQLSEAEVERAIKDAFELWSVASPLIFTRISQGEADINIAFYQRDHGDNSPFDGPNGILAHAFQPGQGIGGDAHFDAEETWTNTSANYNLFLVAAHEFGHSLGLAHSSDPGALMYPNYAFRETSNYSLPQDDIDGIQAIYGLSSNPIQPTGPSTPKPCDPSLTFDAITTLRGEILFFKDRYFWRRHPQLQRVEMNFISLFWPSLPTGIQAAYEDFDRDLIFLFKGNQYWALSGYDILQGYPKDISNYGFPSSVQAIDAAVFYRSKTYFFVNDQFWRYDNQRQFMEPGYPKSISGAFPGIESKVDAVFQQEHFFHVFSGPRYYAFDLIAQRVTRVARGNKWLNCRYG
72 kDa type IV collagenase, sequence (P08253 whole entry): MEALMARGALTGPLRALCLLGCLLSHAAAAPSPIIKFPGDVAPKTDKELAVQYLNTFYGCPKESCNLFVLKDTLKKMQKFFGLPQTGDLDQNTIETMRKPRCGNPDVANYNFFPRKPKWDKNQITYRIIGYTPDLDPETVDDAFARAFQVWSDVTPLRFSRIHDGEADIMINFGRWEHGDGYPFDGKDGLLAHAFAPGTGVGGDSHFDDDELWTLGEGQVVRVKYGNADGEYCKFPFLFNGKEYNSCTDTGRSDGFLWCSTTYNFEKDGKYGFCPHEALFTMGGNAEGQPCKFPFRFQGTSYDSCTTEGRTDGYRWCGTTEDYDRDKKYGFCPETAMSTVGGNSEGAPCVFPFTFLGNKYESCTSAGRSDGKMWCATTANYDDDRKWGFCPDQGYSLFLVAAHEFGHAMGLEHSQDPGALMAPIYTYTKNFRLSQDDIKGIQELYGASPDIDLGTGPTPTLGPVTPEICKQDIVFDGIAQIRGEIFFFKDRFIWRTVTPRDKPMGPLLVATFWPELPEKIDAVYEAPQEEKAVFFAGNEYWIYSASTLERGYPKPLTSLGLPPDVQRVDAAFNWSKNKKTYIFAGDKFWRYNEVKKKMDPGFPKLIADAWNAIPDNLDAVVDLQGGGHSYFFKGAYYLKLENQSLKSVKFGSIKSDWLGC

With `O=C(NCCCOc1ccc(S(=O)(=O)C2(C(=O)NO)CCOCC2)cc1)c1ccc(OC(F)(F)F)cc1`, the negative logarithm of the IC50 (pIC50) (in general, the IC50 on a negative log10 scale, so that one unit is a factor of ten) against Neutrophil collagenase is 6.85; against Collagenase 3, 9.18; in series [1] it was 5.66; in series [2], 6.44.
Turning to `CN(C)c1ccc(NC(=O)CCCOc2ccc(S(=O)(=O)C3(C(=O)NO)CCOCC3)cc2)cc1`, the values for the pIC50 (against Neutrophil collagenase; in series [2]) were 7.00 and 8.00, respectively.
With `O=C(CCCOc1ccc(S(=O)(=O)C2(C(=O)NO)CCOCC2)cc1)Nc1ccc(OC(F)(F)F)cc1`, the negative logarithm of the IC50 (pIC50) against Neutrophil collagenase was 8.17; in series [2], 7.96.
With `O=C(NCCCOc1ccc(S(=O)(=O)C2(C(=O)NO)CCOCC2)cc1)C1CCCCC1`, the results for the pIC50 against Neutrophil collagenase and at Collagenase 3 were 5.51 and 8.09, respectively.
In the case of `CN(C)c1ccc(C(=O)CCOc2ccc(S(=O)(=O)C3(C(=O)NO)CCOCC3)cc2)cc1`, the negative-log IC50 (pIC50) against Neutrophil collagenase is 6.92; against Collagenase 3 it was 9.05; in series [2], 7.80.
`COc1ccc(C(=O)NCCCOc2ccc(S(=O)(=O)C3(C(=O)NO)CCOCC3)cc2)cc1`: the negative-log IC50 (pIC50) on Neutrophil collagenase is 6.05. Also, the bioavailability (as a rule, dose-corrected exposure relative to a reference, in per cent) in series [3] came out at 1.5%. Moreover, the half-life (as a rule, the time needed for the level to fall by half in the phase considered) in series [4] is 34.8 min.
Turning to `O=C(CCCOc1ccc(S(=O)(=O)C2(C(=O)NO)CCOCC2)cc1)N1CCCCC1`, the pIC50 was 6.10 against Neutrophil collagenase, 8.92 against Collagenase 3, 6.17 in series [1] and 6.77 in series [2].
In the case of `C#CCN1CCC(C(=O)NO)(S(=O)(=O)c2ccc(Sc3ccccc3)cc2)CC1`, the pIC50 is 8.10 in series [5] and under 5.30 on Interstitial collagenase.
`Cc1ccc(C(=O)NCCCOc2ccc(S(=O)(=O)C3(C(=O)NO)CCOCC3)cc2)c(C)c1`: the pIC50 is 6.15 against Neutrophil collagenase and 8.10 against Collagenase 3.
Take `CN(C)c1ccc(C(=O)NCCCOc2ccc(S(=O)(=O)C3(C(=O)NO)CCOCC3)cc2)cc1`: the values for the pIC50 (on Neutrophil collagenase; on Collagenase 3; in series [2]) were 6.00, 8.70 and 5.96, respectively.
For `CN(C)c1ccc(NC(=O)CCCCOc2ccc(S(=O)(=O)C3(C(=O)NO)CCOCC3)cc2)cc1`, the pIC50 on Neutrophil collagenase is 8.59.
`CN(C)c1ccc(C(=O)CCCOc2ccc(S(=O)(=O)C3(C(=O)NO)CCOCC3)cc2)cc1` showed a pIC50 on Neutrophil collagenase of 6.77.
Take `COc1ccc(NC(=O)CCCOc2ccc(S(=O)(=O)C3(C(=O)NO)CCOCC3)cc2)cc1`: the pIC50 on Neutrophil collagenase was 7.51; against Collagenase 3, 9.52; in series [1] it was 7.64; in series [2], 8.60.
With `COc1ccc(OCCCCOc2ccc(S(=O)(=O)C3(C(=O)NO)CCOCC3)cc2)cc1`, at Neutrophil collagenase, the negative-log IC50 (pIC50) is 7.17.
For `CN(C(=O)CCCOc1ccc(S(=O)(=O)C2(C(=O)NO)CCOCC2)cc1)c1ccc(OC(F)(F)F)cc1`, the pIC50 was 7.31 at Neutrophil collagenase, 8.48 at Collagenase 3, 6.42 in series [1] and 6.57 in series [2].
As for `CN(C)c1ccc(C(=O)CCCCOc2ccc(S(=O)(=O)C3(C(=O)NO)CCOCC3)cc2)cc1`, the pIC50 is 6.85 at Neutrophil collagenase, 9.40 on Collagenase 3, 5.96 in series [1] and 7.46 in series [2].
Consider `CCCC(C)(C)C(=O)NCCCOc1ccc(S(=O)(=O)C2(C(=O)NO)CCOCC2)cc1`, for which the pIC50 against Neutrophil collagenase was 5.92; against Collagenase 3, 7.52.
Turning to `CN(C)c1ccc(C(=O)C2CCN(c3ccc(S(=O)(=O)C4(C(=O)NO)CCOCC4)cc3)CC2)cc1`, the pIC50 at Neutrophil collagenase is under 5.00; against Collagenase 3 it was 8.10; in series [1], under 5.00; in series [2], 5.40.
